Reference: patent publication US20040234610A1, “Medical device and method for inhalation of aerosolized drug with heliox” (priority 2001, published 2004)

Tests used:
[1] = system: adult patients with severe acute exacerbation of asthma; test: Randomized study, albuterol nebulized with heliox 80:20 vs oxygen (control) through semi-closed system, FEV1 spirometry; type: in vivo, human
Excerpt: Forty-five patients were randomized to receive albuterol nebulized with oxygen (control) versus heliox. At baseline, demographics, outpatient asthma medications, vital signs, oxygen saturation and forced expiratory volume in one second (FEV1) were not different between the two groups. Three consecutive albuterol treatments were given to each group.
The study subjects were adult patients who presented to the Emergency Department at the University of Chicago Medical Center for a severe acute exacerbation of asthma. The study was approved by the Institutional Review Board and all patients enrolled gave written informed consent before beginning the study. Patients 50 years of age or under meeting American Thoracic Society criteria for the diagnosis of asthma were eligible. To assure that only those with severe persistent asthma were studied, only those patients with baseline forced expiratory volume in one second (FEV1) less than fifty percent predicted were enrolled in the study.
The heliox delivery system consisted of a facemask connected to a Y-piece with the nebulizer (Airlife™ Misty-Neb™ Nebulizer) on one limb and a non-rebreather bag on the other limb (as shown in FIG. 1). Heliox flow to the nebulizer was set at 10 liters/minute (via an oxygen calibrated flow meter thus equivalent to 18 L/min Heliox flow). A separate flow of 10 liters/minute of heliox (via an oxygen calibrated flow meter thus equivalent to 18 L/min Heliox flow) was delivered to the non-rebreather bag. […] Each treatment continued until the nebulizer was dry—a period of approximately ten minutes, followed by a fifteen minute washout period. The total time for the study was approximately 90 minutes. Corticosteroid therapy for asthma exacerbations was directed by the emergency room physicians, who were not directly involved in the study.
To assure its accuracy for the purpose of this study, the spirometer was tested every other week using a three liter syringe. In addition, the accuracy of FEV, recordings was tested by having subjects perform forced expiratory maneuvers through the portable spirometer at varying flow rates while it was in-line with a Medical Graphics 1070 pulmonary function testing system. (This system was calibrated daily.) This test was also performed every other week for the first three months of the study and monthly thereafter.
Patients performed a minimum of three forced expiratory maneuvers with values recorded according to the American Thoracic Society recommendations (American Thoracic Society: Standardization of spirometry—1994 update, Am. J. Respir. Crit. Care Med. 152:1107-36 (1995)). All spirometric measurements were made by investigators who were blinded to the gas used for albuterol nebulization. […] Patients were not told explicitly which treatment limb they were randomized to; however, because of potential voice changes while breathing heliox, it was not possible to assure that patients were blinded to which therapy they received.
Demographic data, chronic asthma medications, emergency room corticosteroid administration, vital signs (heart rate, mean arterial pressure, respiratory rate), oxygen saturation by pulse oximetry, emergency room length of stay and hospital admissions from the emergency room were recorded for all patients. Data are expressed as mean±SD when normally distributed and median (interquartile range) when not normally distributed. Interval data were compared using a two-tailed Student's t test or Mann Whitney U test according to normality of distribution, categorical data were compared using Chi square or Fisher Exact test when appropriate. […] The Student-Newman-Keuls test was used to compare differences between heliox and control groups after each nebulization treatment when appropriate. […] A 25% difference in percent change in FEV1 between the control and heliox groups was considered clinically important. […]

[2] = Nebulized particle size distribution by Anderson Cascade Impactor, Y design, drug suspension and different heliox flow rates; type: physicochemical
Method: Additional tests were performed with the ACI described in Example 3 in order to assess the device's ability to nebulize a liquid drug suspension and to assess various heliox flow rate combinations. […]

asthma patients = test: Pilot study, albuterol nebulized with heliox vs oxygen through open mouthpiece and T-piece system, spirometry; type: in vivo, human; settings: open mouthpiece and T-piece adapter system
Method: A pilot study was conducted using an open system, including a mouthpiece and T-piece adapter ([…], Allegiance Healthcare Corp., McGaw Park, Ill.), to nebulize albuterol.

[3] = 6-6 lpm heliox (nebulizer-side port)
[4] = 10-10 lpm heliox (nebulizer-side port)
[5] = 10-18 lpm heliox (nebulizer-side port)
[6] = 18-0 lpm heliox (nebulizer-side port)
[7] = 18-10 lpm heliox (nebulizer-side port)
[8] = trial 6-6: heliox 6 L/min nebulizer, 6 L/min side port
[9] = trial 10-10: heliox 10 L/min nebulizer, 10 L/min side port
[10] = trial 10-18: heliox 10 L/min nebulizer, 18 L/min side port
[11] = trial 18-0: heliox 18 L/min nebulizer, 0 L/min side port
[12] = trial 18-10: heliox 18 L/min nebulizer, 10 L/min side port

## CC(C)(C)NCC(O)c1ccc(O)c(CO)c1 (stereo not drawn) [albuterol]
[1]; control group (nebulized with oxygen 10 L/min), after albuterol treatment 1
  median percent change in FEV1 from baseline: 14.6%
[1]; control group (oxygen), after treatment 2
  median percent change in FEV1 from baseline: 22.7%
[1]; control group (oxygen), after treatment 3
  median percent change in FEV1 from baseline: 26.6%
[1]; heliox group (nebulized with heliox 80:20), after albuterol treatment 1, P=0.007 vs control
  median percent change in FEV1 from baseline: 32.4%
[1]; heliox group, after treatment 2, P=0.007 vs control
  median percent change in FEV1 from baseline: 51.5%
[1]; heliox group, after treatment 3, P=0.016 vs control
  median percent change in FEV1 from baseline: 65.1%
[2]; [3]
  0.7 ≦ Mean Fraction < 5.8 μm: 0.755
  Mean Fraction < 0.7 μm: 0.112
  Mean Fraction ≧ 5.8 μm: 0.134
[2]; [4]
  0.7 ≦ Mean Fraction < 5.8 μm: 0.773
  Mean Fraction < 0.7 μm: 0.159
  Mean Fraction ≧ 5.8 μm: 0.068
[2]; [5]
  0.7 ≦ Mean Fraction < 5.8 μm: 0.626
  Mean Fraction < 0.7 μm: 0.306
  Mean Fraction ≧ 5.8 μm: 0.068
[2]; [6]
  0.7 ≦ Mean Fraction < 5.8 μm: 0.658
  Mean Fraction < 0.7 μm: 0.224
  Mean Fraction ≧ 5.8 μm: 0.118
[2]; [7]
  0.7 ≦ Mean Fraction < 5.8 μm: 0.609
  Mean Fraction < 0.7 μm: 0.317
  Mean Fraction ≧ 5.8 μm: 0.075
[2]; [8]
  Fraction, Adapter: 0.033
  Fraction, Collar: 0.034
  Fraction, Filter (cut size <0.40 μm): 0.045
  Fraction, Stage 0 (cut size 9.00 μm, midpt 10.70 μm): 0.023
  Fraction, Stage 1 (cut size 5.80 μm, midpt 7.22 μm): 0.015
  Fraction, Stage 2 (cut size 4.70 μm, midpt 5.22 μm): 0.013
  Fraction, Stage 3 (cut size 3.30 μm, midpt 3.94 μm): 0.042
  Fraction, Stage 4 (cut size 2.10 μm, midpt 2.63 μm): 0.171
  Fraction, Stage 6 (cut size 0.70 μm, midpt 0.88 μm): 0.130
  Fraction, Stage 7 (cut size 0.40 μm, midpt 0.53 μm): 0.067
  Fraction, Tee Piece: 0.015
  Fraction, Throat (USP) (cut size >9.00 μm, midpt 24.49 μm): 0.013
[2]; [9]
  Fraction, Adapter: 0.018
  Fraction, Collar: 0.018
  Fraction, Filter (cut size <0.40 μm): 0.053
  Fraction, Stage 0 (cut size 9.00 μm, midpt 10.70 μm): 0.012
  Fraction, Stage 1 (cut size 5.80 μm, midpt 7.22 μm): 0.011
  Fraction, Stage 2 (cut size 4.70 μm, midpt 5.22 μm): 0.002
  Fraction, Stage 4 (cut size 2.10 μm, midpt 2.63 μm): 0.171
  Fraction, Stage 6 (cut size 0.70 μm, midpt 0.88 μm): 0.202
  Fraction, Stage 7 (cut size 0.40 μm, midpt 0.53 μm): 0.106
  Fraction, Tee Piece: 0.009
  Fraction, Throat (USP) (cut size >9.00 μm, midpt 24.49 μm): 0.002
[2]; [10]
  Fraction, Adapter: 0.015
  Fraction, Collar: 0.011
  Fraction, Filter (cut size <0.40 μm): 0.113
  Fraction, Stage 0 (cut size 9.00 μm, midpt 10.70 μm): 0.011
  Fraction, Stage 1 (cut size 5.80 μm, midpt 7.22 μm): 0.006
  Fraction, Stage 2 (cut size 4.70 μm, midpt 5.22 μm): 0.007
  Fraction, Stage 3 (cut size 3.30 μm, midpt 3.94 μm): 0.008
  Fraction, Stage 4 (cut size 2.10 μm, midpt 2.63 μm): 0.077
  Fraction, Stage 6 (cut size 0.70 μm, midpt 0.88 μm): 0.232
  Fraction, Stage 7 (cut size 0.40 μm, midpt 0.53 μm): 0.192
  Fraction, Tee Piece: 0.024
  Fraction, Throat (USP) (cut size >9.00 μm, midpt 24.49 μm): 0.001
[2]; [11]
  Fraction, Adapter: 0.027
  Fraction, Collar: 0.011
  Fraction, Filter (cut size <0.40 μm): 0.088
  Fraction, Stage 0 (cut size 9.00 μm, midpt 10.70 μm): 0.026
  Fraction, Stage 1 (cut size 5.80 μm, midpt 7.22 μm): 0.047
  Fraction, Stage 2 (cut size 4.70 μm, midpt 5.22 μm): 0.013
  Fraction, Stage 3 (cut size 3.30 μm, midpt 3.94 μm): 0.029
  Fraction, Stage 4 (cut size 2.10 μm, midpt 2.63 μm): 0.124
  Fraction, Stage 6 (cut size 0.70 μm, midpt 0.88 μm): 0.184
  Fraction, Stage 7 (cut size 0.40 μm, midpt 0.53 μm): 0.137
  Fraction, Tee Piece: 0.005
  Fraction, Throat (USP) (cut size >9.00 μm, midpt 24.49 μm): 0.002
[2]; [12]
  Fraction, Adapter: 0.009
  Fraction, Collar: 0.012
  Fraction, Filter (cut size <0.40 μm): 0.106
  Fraction, Stage 0 (cut size 9.00 μm, midpt 10.70 μm): 0.011
  Fraction, Stage 1 (cut size 5.80 μm, midpt 7.22 μm): 0.026
  Fraction, Stage 2 (cut size 4.70 μm, midpt 5.22 μm): 0.006
  Fraction, Stage 3 (cut size 3.30 μm, midpt 3.94 μm): 0.016
  Fraction, Stage 4 (cut size 2.10 μm, midpt 2.63 μm): 0.066
  Fraction, Stage 6 (cut size 0.70 μm, midpt 0.88 μm): 0.207
  Fraction, Stage 7 (cut size 0.40 μm, midpt 0.53 μm): 0.211
  Fraction, Tee Piece: 0.016
  Fraction, Throat (USP) (cut size >9.00 μm, midpt 24.49 μm): 0.001
Asthma patients
  differences in spirometry between heliox and oxygen albuterol nebulization: no differences in spirometry between heliox and oxygen albuterol nebulization were detected
